{
  "source": "ChEMBL document CHEMBL1152576",
  "about": "“E-Combretastatin and E-resveratrol structural modifications: antimicrobial and cancer cell growth inhibitory beta-E-nitrostyrenes” (Bioorg Med Chem, 2009)",
  "note": "Activity calls are given as the source filed them. The rule behind the calls is not given here.",
  "data": [
    {"system": "P388", "experiment": "Cytotoxicity against mouse P388 cells after 48 hrs by sulforhodamine B assay", "format": "functional", "conditions": "P388, 48 h, read-out: ED50 (the source's name)", "units": {"EC50": "µg/mL"}, "values": [
      {"smiles": "COc1cc(/C=C/[N+](=O)[O-])cc(OC)c1OC", "EC50": 1.1}
    ]},
    {"system": "Escherichia coli", "experiment": "Antimicrobial activity against Escherichia coli ATCC 25922 assessed clear zone in inhibition per disk by CLSI disk diffusion susceptibility assay", "format": "functional", "conditions": "not given", "units": {"MIC": "µg"}, "values": [
      {"smiles": "COc1cc(/C=C/[N+](=O)[O-])cc(OC)c1OC", "MIC": ">100"}
    ]},
    {"system": "Stenotrophomonas maltophilia", "experiment": "Antimicrobial activity against Stenotrophomonas maltophilia ATCC 13637 by broth microdilution susceptibility assay", "format": "functional", "conditions": "not given", "units": {"MIC": "µg/mL"}, "values": [
      {"smiles": "COc1cc(/C=C/[N+](=O)[O-])cc(OC)c1OC", "MIC": "> 64"}
    ]},
    {"system": "KM-20L2", "experiment": "Cytotoxicity against human KM20L2 cells after 48 hrs by sulforhodamine B assay", "format": "functional", "conditions": "KM-20L2, 48 h", "units": {"GI50": "µg/mL"}, "values": [
      {"smiles": "COc1cc(/C=C/[N+](=O)[O-])cc(OC)c1OC", "GI50": 1.3}
    ]},
    {"system": "Neisseria gonorrhoeae", "experiment": "Antimicrobial activity against Neisseria gonorrhoeae ATCC 49226 after 24 hrs by broth microdilution susceptibility assay", "format": "functional", "conditions": "ATCC 49226, 24 h", "units": {"MBC": "µg/mL"}, "values": [
      {"smiles": "COc1cc(/C=C/[N+](=O)[O-])cc(OC)c1OC", "MBC": 8}
    ]},
    {"system": "Enterobacter cloacae", "experiment": "Antimicrobial activity against Enterobacter cloacae ATCC 13047 assessed clear zone in inhibition per disk by CLSI disk diffusion susceptibility assay", "format": "functional", "conditions": "not given", "units": {"MIC": "µg"}, "values": [
      {"smiles": "COc1cc(/C=C/[N+](=O)[O-])cc(OC)c1OC", "MIC": ">100"}
    ]},
    {"system": "Enterococcus faecalis", "experiment": "Antimicrobial activity against Enterococcus faecalis ATCC 29212 assessed clear zone in inhibition per disk by CLSI disk diffusion susceptibility assay", "format": "functional", "conditions": "not given", "units": {"MIC": "µg"}, "values": [
      {"smiles": "COc1cc(/C=C/[N+](=O)[O-])cc(OC)c1OC", "MIC": 50}
    ]},
    {"system": "SK-MEL-5", "experiment": "Cytotoxicity against human SK-MEL-5 cells after 48 hrs by sulforhodamine B assay", "format": "functional", "conditions": "not given", "values": [
      {"smiles": "COc1cc(/C=C/[N+](=O)[O-])cc(OC)c1OC", "GI50": "inactive"}
    ]},
    {"system": "not listed separately", "experiment": "Inhibition of tubulin polymerization", "conditions": "not given", "units": {"IC50": "µM"}, "values": [
      {"smiles": "COc1cc(/C=C/[N+](=O)[O-])cc(OC)c1OC", "IC50": 4.5}
    ]},
    {"system": "NCI-H460", "experiment": "Cytotoxicity against human NCI-H460 cells after 48 hrs by sulforhodamine B assay", "format": "functional", "conditions": "NCI-H460, 48 h", "units": {"GI50": "µg/mL"}, "values": [
      {"smiles": "COc1cc(/C=C/[N+](=O)[O-])cc(OC)c1OC", "GI50": 1.1}
    ]},
    {"system": "Neisseria gonorrhoeae", "experiment": "Antimicrobial activity against Neisseria gonorrhoeae ATCC 49226 assessed clear zone of inhibition measured per disk by CLSI disk diffusion susceptibility assay", "format": "functional", "conditions": "not given", "units": {"MIC": "µg"}, "values": [
      {"smiles": "COc1cc(/C=C/[N+](=O)[O-])cc(OC)c1OC", "MIC": 0.78}
    ]},
    {"system": "DU-145", "experiment": "Cytotoxicity against human DU145 cells after 48 hrs by sulforhodamine B assay", "format": "functional", "conditions": "DU-145, 48 h", "units": {"GI50": "µg/mL"}, "values": [
      {"smiles": "COc1cc(/C=C/[N+](=O)[O-])cc(OC)c1OC", "GI50": 1}
    ]},
    {"system": "Staphylococcus aureus", "experiment": "Antimicrobial activity against Staphylococcus aureus ATCC 29213 assessed clear zone in inhibition per disk by CLSI disk diffusion susceptibility assay", "format": "functional", "conditions": "not given", "units": {"MIC": "µg"}, "values": [
      {"smiles": "COc1cc(/C=C/[N+](=O)[O-])cc(OC)c1OC", "MIC": 12.5}
    ]},
    {"system": "Cryptococcus neoformans", "experiment": "Antifungal activity against Cryptococcus neoformans ATCC 90112 after 48 hrs by broth microdilution susceptibility assay", "format": "functional", "conditions": "ATCC 90112, 48 h", "units": {"MFC": "µg/mL"}, "values": [
      {"smiles": "COc1cc(/C=C/[N+](=O)[O-])cc(OC)c1OC", "MFC": 16}
    ]},
    {"system": "Candida albicans", "experiment": "Antifungal activity against Candida albicans ATCC 90028 after 48 hrs by broth microdilution susceptibility assay", "format": "functional", "conditions": "ATCC 90028, 48 h", "units": {"MIC": "µg/mL"}, "values": [
      {"smiles": "COc1cc(/C=C/[N+](=O)[O-])cc(OC)c1OC", "MIC": 32}
    ]},
    {"system": "SF-268", "experiment": "Cytotoxicity against human SF268 cells after 48 hrs by sulforhodamine B assay", "format": "functional", "conditions": "not given", "values": [
      {"smiles": "COc1cc(/C=C/[N+](=O)[O-])cc(OC)c1OC", "GI50": "inactive"}
    ]},
    {"system": "Streptococcus pneumoniae", "experiment": "Antimicrobial activity against Streptococcus pneumoniae ATCC 6303 by broth microdilution susceptibility assay", "format": "functional", "conditions": "not given", "units": {"MIC": "µg/mL"}, "values": [
      {"smiles": "COc1cc(/C=C/[N+](=O)[O-])cc(OC)c1OC", "MIC": "> 64"}
    ]},
    {"system": "Candida albicans", "experiment": "Antifungal activity against Candida albicans ATCC 90028 after 24 hrs by broth microdilution susceptibility assay", "format": "functional", "conditions": "ATCC 90028, 24 h", "units": {"MFC": "µg/mL"}, "values": [
      {"smiles": "COc1cc(/C=C/[N+](=O)[O-])cc(OC)c1OC", "MFC": 32}
    ]},
    {"system": "Cryptococcus neoformans", "experiment": "Antimicrobial activity against Cryptococcus neoformans ATCC 90112 assessed clear zone in inhibition per disk by CLSI disk diffusion susceptibility assay", "format": "functional", "conditions": "not given", "units": {"MIC": "µg"}, "values": [
      {"smiles": "COc1cc(/C=C/[N+](=O)[O-])cc(OC)c1OC", "MIC": 3.12}
    ]},
    {"system": "Enterobacter cloacae", "experiment": "Antimicrobial activity against Enterobacter cloacae ATCC 13047 by broth microdilution susceptibility assay", "format": "functional", "conditions": "not given", "units": {"MIC": "µg/mL"}, "values": [
      {"smiles": "COc1cc(/C=C/[N+](=O)[O-])cc(OC)c1OC", "MIC": "> 64"}
    ]},
    {"system": "Streptococcus pneumoniae", "experiment": "Antimicrobial activity against Streptococcus pneumoniae ATCC 6303 assessed clear zone in inhibition per disk by CLSI disk diffusion susceptibility assay", "format": "functional", "conditions": "not given", "units": {"MIC": "µg"}, "values": [
      {"smiles": "COc1cc(/C=C/[N+](=O)[O-])cc(OC)c1OC", "MIC": 3.12}
    ]},
    {"system": "BXPC-3", "experiment": "Cytotoxicity against human BxPC3 cells after 48 hrs by sulforhodamine B assay", "format": "functional", "conditions": "BXPC-3, 48 h", "units": {"GI50": "µg/mL"}, "values": [
      {"smiles": "COc1cc(/C=C/[N+](=O)[O-])cc(OC)c1OC", "GI50": 1.4}
    ]},
    {"system": "Staphylococcus aureus", "experiment": "Antimicrobial activity against Staphylococcus aureus ATCC 29213 by broth microdilution susceptibility assay", "format": "functional", "conditions": "not given", "units": {"MIC": "µg/mL"}, "values": [
      {"smiles": "COc1cc(/C=C/[N+](=O)[O-])cc(OC)c1OC", "MIC": "> 64"}
    ]},
    {"system": "Candida albicans", "experiment": "Antimicrobial activity against Candida albicans ATCC 90028 assessed clear zone in inhibition per disk by CLSI disk diffusion susceptibility assay", "format": "functional", "conditions": "not given", "units": {"MIC": "µg"}, "values": [
      {"smiles": "COc1cc(/C=C/[N+](=O)[O-])cc(OC)c1OC", "MIC": 3.12}
    ]},
    {"system": "Stenotrophomonas maltophilia", "experiment": "Antimicrobial activity against Stenotrophomonas maltophilia ATCC 13637 assessed clear zone in inhibition per disk by CLSI disk diffusion susceptibility assay", "format": "functional", "conditions": "not given", "units": {"MIC": "µg"}, "values": [
      {"smiles": "COc1cc(/C=C/[N+](=O)[O-])cc(OC)c1OC", "MIC": ">100"}
    ]},
    {"system": "OVCAR-3", "experiment": "Cytotoxicity against human OVCAR-3 cells after 48 hrs by sulforhodamine B assay", "format": "functional", "conditions": "OVCAR-3, 48 h", "units": {"GI50": "µg/mL"}, "values": [
      {"smiles": "COc1cc(/C=C/[N+](=O)[O-])cc(OC)c1OC", "GI50": 0.42}
    ]},
    {"system": "A498", "experiment": "Cytotoxicity against human A498 cells after 48 hrs by sulforhodamine B assay", "format": "functional", "conditions": "not given", "values": [
      {"smiles": "COc1cc(/C=C/[N+](=O)[O-])cc(OC)c1OC", "GI50": "inactive"}
    ]},
    {"system": "Neisseria gonorrhoeae", "experiment": "Antimicrobial activity against Neisseria gonorrhoeae ATCC 49226 by broth microdilution susceptibility assay", "format": "functional", "conditions": "not given", "units": {"MIC": "µg/mL"}, "values": [
      {"smiles": "COc1cc(/C=C/[N+](=O)[O-])cc(OC)c1OC", "MIC": 4}
    ]},
    {"system": "Escherichia coli", "experiment": "Antimicrobial activity against Escherichia coli ATCC 25922 by broth microdilution susceptibility assay", "format": "functional", "conditions": "not given", "units": {"MIC": "µg/mL"}, "values": [
      {"smiles": "COc1cc(/C=C/[N+](=O)[O-])cc(OC)c1OC", "MIC": "> 64"}
    ]},
    {"system": "SF-295", "experiment": "Cytotoxicity against human SF295 cells after 48 hrs by sulforhodamine B assay", "format": "functional", "conditions": "SF-295, 48 h", "units": {"GI50": "µg/mL"}, "values": [
      {"smiles": "COc1cc(/C=C/[N+](=O)[O-])cc(OC)c1OC", "GI50": 1.3}
    ]},
    {"system": "Micrococcus luteus", "experiment": "Antimicrobial activity against Micrococcus luteus Presque Isle 456 assessed clear zone in inhibition per disk by CLSI disk diffusion susceptibility assay", "format": "functional", "conditions": "not given", "units": {"MIC": "µg"}, "values": [
      {"smiles": "COc1cc(/C=C/[N+](=O)[O-])cc(OC)c1OC", "MIC": 25}
    ]},
    {"system": "Micrococcus luteus", "experiment": "Antimicrobial activity against Micrococcus luteus Presque Isle 456 by broth microdilution susceptibility assay", "format": "functional", "conditions": "not given", "units": {"MIC": "µg/mL"}, "values": [
      {"smiles": "COc1cc(/C=C/[N+](=O)[O-])cc(OC)c1OC", "MIC": "> 64"}
    ]},
    {"system": "Enterococcus faecalis", "experiment": "Antimicrobial activity against Enterococcus faecalis ATCC 29212 by broth microdilution susceptibility assay", "format": "functional", "conditions": "not given", "units": {"MIC": "µg/mL"}, "values": [
      {"smiles": "COc1cc(/C=C/[N+](=O)[O-])cc(OC)c1OC", "MIC": "> 64"}
    ]},
    {"system": "MCF7", "experiment": "Cytotoxicity against human MCF7 cells after 48 hrs by sulforhodamine B assay", "format": "functional", "conditions": "not given", "values": [
      {"smiles": "COc1cc(/C=C/[N+](=O)[O-])cc(OC)c1OC", "GI50": "inactive"}
    ]},
    {"system": "Cryptococcus neoformans", "experiment": "Antifungal activity against Cryptococcus neoformans ATCC 90112 after 72 hrs by broth microdilution susceptibility assay", "format": "functional", "conditions": "ATCC 90112, 72 h", "units": {"MIC": "µg/mL"}, "values": [
      {"smiles": "COc1cc(/C=C/[N+](=O)[O-])cc(OC)c1OC", "MIC": 16}
    ]}
  ]
}
